Target: T1, CXCR4 (Homo sapiens, UniProt P61073)
T1 construct: endogenous in cells; host or cells: MDA-MB-231
Assay: Primary binding affinity screening (competition with biotinylated TN14003 on MDA-MB-231 cells)
Details: EC relative to AMD3100
Protocol: For binding affinity assay, 2×10^4 MDA-MB-231 cells in 300 μL of cell culture medium were seeded in an 8-well slide chamber 2 days before the experiments were conducted. Various concentrations of different compounds (1, 10, 100, or 1000 nM) were added to the separate wells and incubated for 10 minutes at room temperature, and then the cells were fixed in 4% ice-cold paraformaldehyde. The cells were rehydrated in phosphate-buffered saline (PBS). The slides were subsequently incubated for 30 minutes at room temperature with 0.05 μg/mL biotinylated TN14003, washed three times with PBS, and incubated in streptavidin-rhodamine (1:150 dilution; Jackson ImmunoResearch Laboratories, West Grove, Pa.) for 30 minutes at room temperature. Finally, the slides were washed with PBS and mounted in an anti-fade mounting solution (Molecular Probes, Eugene, Oreg.), and the samples were analyzed on a Nikon Eclipse E800 microscope.

T1 sequence (P61073 whole entry): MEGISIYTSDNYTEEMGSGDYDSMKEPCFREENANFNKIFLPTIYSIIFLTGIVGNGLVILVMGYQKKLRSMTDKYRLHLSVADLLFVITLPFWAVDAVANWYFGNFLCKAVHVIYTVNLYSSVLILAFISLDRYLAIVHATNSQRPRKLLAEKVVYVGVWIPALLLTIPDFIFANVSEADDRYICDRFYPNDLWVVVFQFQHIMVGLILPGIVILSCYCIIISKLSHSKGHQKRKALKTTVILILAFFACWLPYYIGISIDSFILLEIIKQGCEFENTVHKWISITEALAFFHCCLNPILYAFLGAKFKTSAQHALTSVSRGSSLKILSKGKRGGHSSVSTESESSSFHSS

Compound | potency compared with AMD3100 [fold]
Fluoro-N-(4-(phenylsulfonamidomethyl)benzyl)benzamide [IIIi] | 1000
COc1ccccc1C(=O)NCc1ccc(CNS(=O)(=O)c2ccccc2)cc1 [IIIe, 2-Methoxy-N-(4-(phenylsulfonamidomethyl)benzyl)benzamide] | 1000

The remaining lines, values ahead:

potency compared with AMD3100 [fold] | Compound
1000 | O=C(NCc1ccc(CNS(=O)(=O)c2ccccc2)cc1)c1ccc(F)cc1 [IIIj, 4-Fluoro-N-(4-(phenylsulfonamidomethyl)benzyl)benzamide]
1000 | Cc1ccccc1C(=O)NCc1ccc(CNS(=O)(=O)c2ccccc2)cc1 [IIIb, 2-Methyl-N-(4-(phenylsulfonamidomethyl)benzyl)benzamide]

Same assay, conditions: MDA-MB-231 cells; compounds at 1, 10, 100, or 1000 nM; biotinylated TN14003

Compound | EC [nM]
O=C(NCc1ccc(CNS(=O)(=O)c2ccccc2)cc1)c1ccc(CNc2ncccn2)cc1 [N-(4-(phenylsulfonamidomethyl)benzyl)-4-((pyrimidin-2-ylamino)methyl)benzamide] | 1
Fluoro-N-(4-(phenylsulfonamidomethyl)benzyl)benzamide [IIIi] | 1
COc1ccccc1C(=O)NCc1ccc(CNS(=O)(=O)c2ccccc2)cc1 [IIIe, 2-Methoxy-N-(4-(phenylsulfonamidomethyl)benzyl)benzamide] | 1

Other lines, results leading:

EC [nM] | Compound
1 | O=C(NCc1ccc(CNS(=O)(=O)c2ccccc2)cc1)c1ccc(F)cc1 [IIIj, 4-Fluoro-N-(4-(phenylsulfonamidomethyl)benzyl)benzamide]
1 | Cc1ccccc1C(=O)NCc1ccc(CNS(=O)(=O)c2ccccc2)cc1 [IIIb, 2-Methyl-N-(4-(phenylsulfonamidomethyl)benzyl)benzamide]

Tested on: not given
Assay: not given
Details: not given

Compound | melting point [°C]
Cc1ccc(S(=O)(=O)NCc2ccc(CNC(=O)c3ccccc3C)cc2)cc1 [IIb, 2-Methyl-N-(4-((4-methylphenylsulfonamido)methyl)benzyl)benzamide] | 147 to 149
Cc1ccc(S(=O)(=O)NCc2ccc(CNC(=O)c3c(Cl)cc(Cl)cc3Cl)cc2)cc1 [IIp, 2,4,6-Trichloro-N-(4-((4-methylphenylsulfonamido)methyl)benzyl)benzamide] | 188 to 190
O=C(NCc1ccc(CNS(=O)(=O)c2ccccc2)cc1)c1cccnc1 [IIIq, N-(4-(phenylsulfonamidomethyl)benzyl)nicotinamide] | 109 to 111
O=C(NCc1ccc(CNS(=O)(=O)c2ccc(F)c(F)c2)cc1)c1cnc2ccccn12 [Ii, N-(4-((3,4-difluorophenylsulfonamido)methyl)benzyl)imidazo[1,2-a]pyridine-3-carboxamide] | 192 to 194
O=C(NCc1ccc(CNS(=O)(=O)c2ccccc2)cc1)c1cccc(Cl)c1 [IIIm, 3-Chloro-N-(4-(phenylsulfonamidomethyl)benzyl)benzamide] | 114 to 116
Cc1ccc(C(=O)NCc2ccc(CNS(=O)(=O)c3ccccc3)cc2)cc1 [IIId, 4-Methyl-N-(4-(phenylsulfonamidomethyl)benzyl)benzamide] | 188 to 190
Cc1ccc(S(=O)(=O)NCc2ccc(CNC(=O)c3cccc(F)c3)cc2)cc1 [IIi, 3-Fluoro-N-(4-((4-methylphenylsulfonamido)methyl)benzyl)benzamide] | 137 to 139
Cn1nccc1C(=O)NCc1ccc(CNS(=O)(=O)c2ccc3c(c2)CCO3)cc1 [Ic, N-(4-((2,3-dihydrobenzofuran-5-sulfonamido)methyl)benzyl)-1-methyl-1H-pyrazole-5-carboxamide] | 143 to 145
COc1cccc(C(=O)NCc2ccc(CNS(=O)(=O)c3ccc(C)cc3)cc2)c1 [IIf, 3-Methoxy-N-(4-((4-methylphenylsulfonamido)methyl)benzyl)benzamide] | 130 to 132
O=C(NCc1ccc(CNS(=O)(=O)c2ccccc2)cc1)c1c(Cl)cc(Cl)cc1Cl [IIIp, 2,4,6-Trichloro-N-(4-(phenylsulfonamidomethyl)benzyl)benzamide] | 158 to 160
O=C(NCc1ccc(CNS(=O)(=O)c2ccccc2)cc1)c1ccccc1F [IIIh, 2-Fluoro-N-(4-(phenylsulfonamidomethyl)benzyl)benzamide] | 122 to 124
Cc1ccc(S(=O)(=O)NCc2ccc(CNC(=O)c3ccc(Cl)cc3)cc2)cc1 [IIn, 4-Chloro-N-(4-((4-methylphenylsulfonamido)methyl)benzyl)benzamide] | 201 to 203
Cc1ccc(S(=O)(=O)NCc2ccc(CNC(=O)c3ccccc3Cl)cc2)cc1 [IIk, 2-Chloro-N-(4-((4-methylphenylsulfonamido)methyl)benzyl)benzamide] | 140 to 142
COc1ccccc1C(=O)NCc1ccc(CNS(=O)(=O)c2ccccc2)cc1 [IIIe, 2-Methoxy-N-(4-(phenylsulfonamidomethyl)benzyl)benzamide] | 123 to 125
O=C(NCc1ccc(CNS(=O)(=O)c2ccc(F)cc2F)cc1)c1ncc[nH]1 [Ie, N-(4-((2,4-difluorophenylsulfonamido)methyl)benzyl)-1H-imidazole-2-carboxamide] | 225 to 227

Next, values leading:

melting point [°C] | Compound
116 to 118 | O=C(NCc1ccc(CNS(=O)(=O)c2ccccc2)cc1)c1ccccc1Cl [IIIk, 2-Chloro-N-(4-(phenylsulfonamidomethyl)benzyl)benzamide]
112 to 114 | Cc1cccc(C(=O)NCc2ccc(CNS(=O)(=O)c3ccccc3)cc2)c1 [IIIc, 3-Methyl-N-(4-(phenylsulfonamidomethyl)benzyl)benzamide]
154 to 156 | O=C(NCc1ccc(CNS(=O)(=O)c2ccccc2)cc1)c1ccncc1 [IIIr, N-(4-(phenylsulfonamidomethyl)benzyl)isonicotinamide]
120 to 122 | Cc1ccc(S(=O)(=O)NCc2ccc(CNC(=O)c3cccnc3)cc2)cc1 [IIq, N-(4-((4-methylphenylsulfonamido)methyl)benzyl)nicotinamide]
138 to 140 | Cc1ccc(S(=O)(=O)NCc2ccc(CNC(=O)c3ccccc3F)cc2)cc1 [IIh, 2-Fluoro-N-(4-((4-methylphenylsulfonamido)methyl)benzyl)benzamide]
162 to 164 | Cc1ccc(S(=O)(=O)NCc2ccc(CNC(=O)c3ccccc3)cc2)cc1 [IIa, N-(4-((4-methylphenylsulfonamido)methyl)benzyl)benzamide]
163 to 165 | Cc1ccc(S(=O)(=O)NCc2ccc(CNC(=O)c3ccncc3)cc2)cc1 [IIr, N-(4-((4-methylphenylsulfonamido)methyl)benzyl)isonicotinamide]
207 to 209 | Cc1ccc(S(=O)(=O)NCc2ccc(CNC(=O)c3ccc([N+](=O)[O-])cc3)cc2)cc1 [IIo, N-(4-((4-methylphenylsulfonamido)methyl)benzyl)-4-nitrobenzamide]
147 to 149 | COc1ccc(C(=O)NCc2ccc(CNS(=O)(=O)c3ccc(C)cc3)cc2)cc1 [IIg, 4-Methoxy-N-(4-((4-methylphenylsulfonamido)methyl)benzyl)benzamide]
154 to 156 | COc1ccccc1C(=O)NCc1ccc(CNS(=O)(=O)c2ccc(C)cc2)cc1 [IIe, 2-Methoxy-N-(4-((4-methylphenylsulfonamido)methyl)benzyl)benzamide]
180 to 182 | Cc1ccc(C(=O)NCc2ccc(CNS(=O)(=O)c3ccc(C)cc3)cc2)cc1 [IId, 4-Methyl-N-(4-((4-methylphenylsulfonamido)methyl)benzyl)benzamide]
149 to 151 | O=C(NCc1ccc(CNS(=O)(=O)c2ccc3c(c2)CCO3)cc1)c1cccc2c1COC2 [Id, N-(4-((2,3-dihydrobenzofuran-5-sulfonamido)methyl)benzyl)-1,3-dihydroisobenzofuran-4-carboxamide]
110 to 112 | Cc1ccc(S(=O)(=O)NCc2ccc(CNC(=O)c3cccc(Cl)c3)cc2)cc1 [IIm, 3-Chloro-N-(4-((4-methylphenylsulfonamido)methyl)benzyl)benzamide]
123 to 125 | Cc1ccc(S(=O)(=O)NCc2ccc(CNC(=O)c3cccc(C)c3)cc2)cc1 [IIc, 3-Methyl-N-(4-((4-methylphenylsulfonamido)methyl)benzyl)benzamide]
129 to 131 | Cc1ccccc1C(=O)NCc1ccc(CNS(=O)(=O)c2ccccc2)cc1 [IIIb, 2-Methyl-N-(4-(phenylsulfonamidomethyl)benzyl)benzamide]
201 to 203 | O=C(NCc1ccc(CNS(=O)(=O)c2ccccc2)cc1)c1ccc([N+](=O)[O-])cc1 [IIIo, 4-Nitro-N-(4-(phenylsulfonamidomethyl)benzyl)benzamide]
163 to 165 | O=C(NCc1ccc(CNS(=O)(=O)c2cccc(F)c2)cc1)c1cc2ccccn2n1 [Ih, N-(4-((3-fluorophenylsulfonamido)methyl)benzyl)pyrazolo[1,5-a]pyridine-2-carboxamide]
182 to 184 | O=C(NCc1ccc(CNS(=O)(=O)c2ccccc2)cc1)c1ccc(Cl)cc1 [IIIn, 4-Chloro-N-(4-(phenylsulfonamidomethyl)benzyl)benzamide]
164 to 166 | COc1ccc(C(=O)NCc2ccc(CNS(=O)(=O)c3ccccc3)cc2)cc1 [IIIg, 4-Methoxy-N-(4-(phenylsulfonamidomethyl)benzyl)benzamide]
180 to 182 | O=C(NCc1ccc(CNS(=O)(=O)c2ccc3c(c2)CCO3)cc1)c1cc2ccccn2n1 [Ib, N-(4-((2,3-dihydrobenzofuran-5-sulfonamido)methyl)benzyl)pyrazolo[1,5-a]pyridine-2-carboxamide]
138 to 140 | O=C(NCc1ccc(CNS(=O)(=O)c2ccccc2F)cc1)c1cc2ccccn2n1 [Ij, N-(4-((2-fluorophenylsulfonamido)methyl)benzyl)pyrazolo[1,5-a]pyridine-2-carboxamide]
120 to 122 | COc1cccc(C(=O)NCc2ccc(CNS(=O)(=O)c3ccccc3)cc2)c1 [IIIf, 3-Methoxy-N-(4-(phenylsulfonamidomethyl)benzyl)benzamide]

Source: patent publication US10669270B2, “Amide-sulfamide derivatives, compositions, and uses related to CXCR4 inhibition” (Emory University, priority 2016, dated 2020)
